The target in test [1] is T1, SjGlcNK (Streptacidiphilus jiangxiensis, UniProt A0A1H7TQR5).
T1 construct: gene SAMN05414137_114149; recombinant, E. coli BL21(DE3), nickel NTA and size exclusion; monomer in solution; C-lobe residues 194-438
T1 sequence (A0A1H7TQR5 1-438): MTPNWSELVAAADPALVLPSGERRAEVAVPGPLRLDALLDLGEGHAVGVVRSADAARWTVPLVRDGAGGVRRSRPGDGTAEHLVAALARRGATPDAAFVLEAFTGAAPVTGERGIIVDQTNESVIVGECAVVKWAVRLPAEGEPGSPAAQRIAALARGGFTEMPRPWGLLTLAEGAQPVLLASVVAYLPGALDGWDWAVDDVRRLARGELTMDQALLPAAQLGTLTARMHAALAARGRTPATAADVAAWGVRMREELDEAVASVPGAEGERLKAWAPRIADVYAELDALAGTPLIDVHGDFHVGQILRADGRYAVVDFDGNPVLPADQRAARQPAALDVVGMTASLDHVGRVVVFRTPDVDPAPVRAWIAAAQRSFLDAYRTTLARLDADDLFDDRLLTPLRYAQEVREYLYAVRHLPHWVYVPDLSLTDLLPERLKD
The test can be described thus: kinase kinetics, Michaelis-Menten fit. The test is classed as biochemical. The conditions noted are these: co-substrate ATP.

Test [2] deals with T2, MvMak (Mycolicibacterium austroafricanum, UniProt A1TH50).
T2 construct: gene mak; recombinant, produced as previously described
T2 sequence (A1TH50 whole entry): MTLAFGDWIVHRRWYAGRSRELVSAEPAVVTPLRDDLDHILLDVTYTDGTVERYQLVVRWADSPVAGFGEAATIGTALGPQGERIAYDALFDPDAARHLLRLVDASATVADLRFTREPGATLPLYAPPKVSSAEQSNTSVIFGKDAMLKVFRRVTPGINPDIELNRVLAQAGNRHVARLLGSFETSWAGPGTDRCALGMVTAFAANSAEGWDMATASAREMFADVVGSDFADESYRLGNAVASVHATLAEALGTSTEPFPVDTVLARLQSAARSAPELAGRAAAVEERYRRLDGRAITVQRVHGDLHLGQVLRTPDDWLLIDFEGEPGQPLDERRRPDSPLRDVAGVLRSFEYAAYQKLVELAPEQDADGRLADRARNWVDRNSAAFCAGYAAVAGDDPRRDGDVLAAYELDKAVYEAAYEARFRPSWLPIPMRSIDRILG
Briefly: ADP-Glo kinase assay, relative activity. The test is classed as biochemical. Particulars: 5 mM sugar, 1 mM ATP, 2 μM enzyme, room temperature, 5 min.

A value given as a limit tells only on which side of the number the result lay.

Broadly, the Km is the concentration of substrate that gives half-maximal velocity.

On to `OC[C@H]1OC(O)[C@H](O)[C@@H](O)[C@@H]1O` (some centres unmarked) [glucose], for which, in test [1], the Michaelis-Menten constant (Km) was over 100 mM.
Consider `OC[C@H]1O[C@H](O[C@H]2[C@H](O)[C@@H](O)C(O)O[C@@H]2CO)[C@H](O)[C@@H](O)[C@@H]1O` (some centres unmarked) [maltose], for which the “ADP-Glo kinase assay, relative activity” value in test [2] is on record as “MvMak uses exclusively maltose as the substrate acceptor”.

For the origin of these results see PMC6520443, “Molecular Fingerprints for a Novel Enzyme Family in Actinobacteria with Glucosamine Kinase Activity” (mBio, 2019).
